From article PMC6491832, “Methylobacterium extorquens RSH Enzyme Synthesizes (p)ppGpp and pppApp in vitro and in vivo, and Leads to Discovery of pppApp Synthesis in Escherichia coli” (Frontiers in Microbiology, 2019)
Like-named read-outs stand apart in the source and are kept apart here.

Experiments:
RelSeq1-385 = target: T1, RelSeq1-385 (Streptococcus dysgalactiae, UniProt Q54089); assay type: biochemical; conditions: 8 mM ATP, 8 mM GTP, 16 mM MgCl2, 50 mM Tris-HCl pH 8.9, 37 °C, control reaction
T1 construct: gene relA; N-terminal catalytic half, residues 1-385; His8-SUMO tag removed by Ulp1; expressed in E. coli BL21(DE3) Rosetta

purified protein [1] = substrate: Nc1nc2c(ncn2[C@@H]2O[C@H](COP(=O)(O)OP(=O)(O)OP(=O)(O)O)[C@@H](O)[C@H]2O)c(=O)[nH]1; assay: purified protein; assay type: biochemical, Methylorubrum extorquens; conditions: 8 mM ATP, GTP 1-8 mM, 8 mM CoCl2, 50 mM Tris-HCl pH 8.9, 37 °C, 2 h, 80 nM enzyme, pyrophosphate acceptor
purified protein [2] = substrate: Nc1ncnc2c1ncn2[C@@H]1O[C@H](COP(=O)(O)OP(=O)(O)OP(=O)(O)O)[C@@H](O)[C@H]1O; assay: purified protein; assay type: biochemical, Methylorubrum extorquens; conditions: 8 mM GTP, ATP 0.25-2 mM, 8 mM CoCl2, 50 mM Tris-HCl pH 8.9, 37 °C, 2 h, 80 nM enzyme, pyrophosphate donor

T1 sequence (Q54089 1-385): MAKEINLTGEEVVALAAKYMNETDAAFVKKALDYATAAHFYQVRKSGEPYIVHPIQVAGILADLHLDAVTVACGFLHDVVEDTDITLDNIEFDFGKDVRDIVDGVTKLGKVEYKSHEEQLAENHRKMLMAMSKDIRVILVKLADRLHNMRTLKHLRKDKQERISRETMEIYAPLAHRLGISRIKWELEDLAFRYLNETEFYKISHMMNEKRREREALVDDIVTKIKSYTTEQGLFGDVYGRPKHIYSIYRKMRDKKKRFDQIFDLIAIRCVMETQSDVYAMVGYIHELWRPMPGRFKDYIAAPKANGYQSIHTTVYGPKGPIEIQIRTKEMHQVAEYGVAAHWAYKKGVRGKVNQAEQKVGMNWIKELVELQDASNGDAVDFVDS

Nc1ncnc2c1ncn2[C@@H]1O[C@H](COP(=O)(O)OP(=O)(O)OP(=O)(O)O)[C@@H](O)[C@H]1O [ATP]
pppGpp synthesis from [33P]gamma-ATP, two-dimensional TLC (RelSeq1-385; pyrophosphate donor): ATP + GTP with RelSeq1-385 (to visualize pppGpp)

Nc1nc2c(ncn2[C@@H]2O[C@H](COP(=O)(O)OP(=O)(O)OP(=O)(O)O)[C@@H](O)[C@H]2O)c(=O)[nH]1 [GTP]
pppGpp synthesis from [33P]gamma-ATP, two-dimensional TLC (RelSeq1-385; pyrophosphate acceptor): ATP + GTP with RelSeq1-385 (to visualize pppGpp)

B1: RSHMex1-352 (Methylorubrum extorquens AM1) (protein)
chain: MMRQYELVERVKRYNPAANEALLNRAYVYAMRAHGTQKRASGDPFFAHPLEVAAILTDLRLDDATIVAAVLHDTVEDTAATLDEIREIFGPEIGALVDGLTKLKRLDLVSKRAVQGENFRKLLLAVAEDVRVLLVKLADRLHNMRTLHFMRDDKRARIAEETLDIYAPLAGRMGMQELRDELEDLSFRTLKPEVYATITKRLEDLSAKSGSVIESIEHDLTARLAARGIAAHVKGRLKKPFSIWSKMERKSVAFEQLSDIVGFRVIVGTLAECYAALGVVHTSWPMVPGRYKDYVSTPKQNDYRSIHTTVIGPKRQRVELQIRTAEMDEIAEYGIAAHAHYKEAGKEGVEGE
notes: N-terminal catalytic half (hydrolase + synthetase domains, residues 1-352), CTD regulatory domain omitted; His8-SUMO tag removed by Ulp1; expressed in E. coli BL21(DE3) Rosetta
Km (purified protein [1]): 3000 ± 290 µM
Km (purified protein [2]): 390 ± 10 µM
